Assay results from US20250188079A1, “INHIBITING CYCLIC AMP-RESPONSIVE ELEMENT-BINDING PROTEIN (CREB)” (Forma Therapeutics, Inc., priority 2019, published 2025).

Each compound was assayed against CBP (Homo sapiens (Human), UniProt Q92793) (assay: HTRF biochemical assay for CBP activity (TR-FRET, bromodomain)). Conditions: geometric mean, 10-point 3-fold dilution 33 μM to 1.7 nM, read-out: BROMO IC50 TRF TB CBP (μM gmean).
Type: binding
Method in brief: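 IC50 derives from a 4-parameter logistic fit of % inhibition, calculated from the 520/490 nm TR-FRET ratio against DMSO and no-enzyme controls. Final compound levels spanned 33 μM to 1.7 nM (10 points, 3-fold), with CBP and peptide ligand in Hepes pH 7.5/GSH/BGG/BSA/Triton buffer, incubated at room temperature for varying times.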

Sequence of CBP (Q92793 1085-1192): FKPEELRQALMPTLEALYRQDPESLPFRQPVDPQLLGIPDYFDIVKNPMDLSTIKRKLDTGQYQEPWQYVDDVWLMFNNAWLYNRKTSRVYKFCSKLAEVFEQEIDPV

Compared with `COC(=O)N1CCc2ccc3c(nc([C@H]4CC[C@](C)(C(=O)O)CC4)n3[C@H](CO)Cc3ccccc3)c2C1` [Compound 117], `COC(=O)N1CCc2ccc3c(nc([C@H]4CC[C@H](C(=O)O)CC4)n3[C@H](C)C[C@@H]3CCCCO3)c2C1` [Compound 302] is higher in IC50: 0.001 to 0.01 µM for the first, 0.1 to 1 µM for the second. The first is the more potent here.

`COC(=O)N1Cc2c(ccc3c2nc(C2CCCCC2)n3CCc2ccccc2)CC1C` (centres unmarked) [Compound 238] and `COC(=O)N1CCc2ccc3c(nc([C@H]4CC[C@H](C(=O)O)CC4)n3[C@H](C)C[C@@H]3CCCOC3)c2C1` [Compound 212] fall in the same range of IC50: 0.01 to 0.1 µM for the first, 0.01 to 0.1 µM for the second.

First: COC(=O)N1CCc2ccc3c(nc([C@H]4CC[C@H](C(=O)O)CC4)n3[C@@H](C)C[C@]3(C)CC[C@@H](OC)CC3)c2C1 [Compound 249]
Second: COC(=O)N1CCc2ccc3c(nc(N4CCC[C@@H](C(=O)O)C4)n3C[C@H](C)c3ccccc3)c2C1 [Compound 144]
The IC50 of the first is higher: 0.01 to 0.1 µM for the first, 0.001 to 0.01 µM for the second.

First: COC(=O)N1CCc2ccc3c(nc(C4CCN(S(=O)(=O)NC(C)=O)CC4)n3[C@H](C)Cc3ccccc3)c2C1 [Compound 348]
Second: COC(=O)N1CCc2ccc3c(nc(C4CCCCC4)n3[C@H](CC(=O)O)c3ccccc3)c2C1 [Compound 180]
The IC50 of the first is higher: 1 to 1000 µM for the first, 0.01 to 0.1 µM for the second.

Compared with `COC(=O)N1CCc2ccc3c(nc(N4CCC(C(=O)O)CC4)n3[C@@H](C)Cn3cc(C(F)(F)F)cn3)c2C1` [Compound 46], `COC(=O)N1CCc2ccc3c(nc([C@H]4CC[C@H](C(=O)O)CC4)n3[C@H](C)Cc3ccc(F)c(OC)c3)c2C1` [Compound 286] is higher in IC50: 0.001 to 0.01 µM for the first, 0.01 to 0.1 µM for the second. The first is the more potent here.

`COC(=O)N1CCc2ccc3c(nc([C@H]4CC[C@H](C(=O)O)CC4)n3C[C@@H](OC)c3ccccc3)c2C1` [Compound 214] and `COC(=O)N1CCc2ccc3c(nc(C4CCCCC4)n3C[C@@H](C(=O)O)C3CCCCC3)c2C1` [Compound 281] fall in the same range of IC50: 0.01 to 0.1 µM for the first, 0.01 to 0.1 µM for the second.

Compared with `COC(=O)N1Cc2c(ccc3c2nc(C2CCCCC2)n3Cc2ccccc2)C[C@H]1C` [Compound 282], `COC(=O)N1CCc2ccc3c(nc([C@H]4CC[C@H](C(=O)O)CC4)n3[C@@H](C)Cc3cc(F)cc(F)c3)c2C1` (single isomer, unassigned) [Compound 3] is lower in IC50: 0.01 to 0.1 µM for the first, 0.001 to 0.01 µM for the second. The second is the more potent here.

First: COC(=O)N1CCc2ccc3c(nc(C4CCCCC4)n3[C@@H](CC(=O)O)c3ccccc3)c2C1 [Compound 213]
Second: COC(=O)N1CCc2ccc3c(nc(N4CCCCC4)n3[C@@H](C)Cc3cccc(-c4nnn[nH]4)c3)c2C1 [Compound 108]
The IC50 of the first is higher: 0.01 to 0.1 µM for the first, 0.001 to 0.01 µM for the second.

First: COC(=O)N1CCc2ccc3c(nc([C@H]4CC[C@@H](C(=O)O)CC4)n3CCn3cc(Cl)cn3)c2C1 [Compound 291]
Second: COC(=O)N1CCc2ccc3c(nc([C@H]4CCC[C@H](C(=O)O)C4)n3[C@@H](C)Cc3ccccc3)c2C1 [Compound 261]
The IC50 of the first is higher: 0.1 to 1 µM for the first, 0.01 to 0.1 µM for the second. The second is the more potent here.

`COC(=O)N1CCc2ccc3c(nc(C4CCCCC4)n3CC[C@H]3CCCC[C@@H]3C(=O)O)c2C1` [Compound 252] and `COC(=O)N1CCc2ccc3c(nc(C45CC(C4)C5)n3C[C@@H](C(=O)O)c3ccccc3)c2C1` [Compound 246] fall in the same range of IC50: 0.01 to 0.1 µM for the first, 0.01 to 0.1 µM for the second.

`COC(=O)N1CCc2ccc3c(nc(C4CCN(S(C)(=O)=O)CC4)n3[C@@H](C)Cc3ccccc3)c2C1` [Compound 139] and `COC(=O)N1CCc2ccc3c(nc(C4CCN(S(C)(=O)=O)CC4)n3[C@H](C)Cn3cc(Cl)cn3)c2C1` [Compound 110] fall in the same range of IC50: 0.001 to 0.01 µM for the first, 0.001 to 0.01 µM for the second.

`COC(=O)N1CCc2ccc3c(nc(-c4ccc(C(C)(C)C(=O)O)cc4)n3[C@@H](C)Cn3cc(Cl)cn3)c2C1` [Compound 258] and `COC(=O)N1CCc2ccc3c(nc(C4CCCCC4)n3C[C@@H](C(=O)O)c3ccccc3)c2C1` [Compound 197] fall in the same range of IC50: 0.01 to 0.1 µM for the first, 0.01 to 0.1 µM for the second.

First: COC(=O)N1CCc2ccc3c(nc(-c4ccc(C(=O)O)cc4)n3[C@@H](C)Cn3cc(Cl)cn3)c2C1 [Compound 132]
Second: COC(=O)N1CCc2ccc3c(nc([C@H]4CC[C@H](C(=O)O)CC4)n3[C@H](C)[C@H](O)c3ccccc3)c2C1 [Compound 276]
The IC50 of the first is lower: 0.001 to 0.01 µM for the first, 0.01 to 0.1 µM for the second. The first is the more potent here.

`COC(=O)N1CCc2ccc3c(nc([C@H]4CC[C@H](C(=O)O)CC4)n3[C@H](C)Cc3cccnc3)c2C1` [Compound 111] and `COC(=O)N1CCc2ccc3c(nc(C4CCCCC4)n3[C@H](C)C[C@@H]3CCCC[C@@H]3C(=O)O)c2C1` [Compound 91] fall in the same range of IC50: 0.001 to 0.01 µM for the first, 0.001 to 0.01 µM for the second.

`COC(=O)N1CCc2ccc3c(nc(C4CCCCC4)n3C[C@@H](CC(=O)O)c3cc(F)cc(F)c3)c2C1` [Compound 76] and `COC(=O)N1CCc2ccc3c(nc([C@H]4CC[C@H](C(=O)O)CC4)n3[C@@H](C)Cc3ccccn3)c2C1` [Compound 141] fall in the same range of IC50: 0.001 to 0.01 µM for the first, 0.001 to 0.01 µM for the second.

`COC(=O)N1CCc2ccc3c(nc(N4CCN(C(=O)C5COC5)CC4)n3[C@H](C)Cc3ccccc3)c2C1` [Compound 79] and `COC(=O)N1CCc2ccc3c(nc(C4CCCCC4)n3C[C@H](CC(=O)O)c3cc(F)cc(F)c3)c2C1` [Compound 37] fall in the same range of IC50: 0.001 to 0.01 µM for the first, 0.001 to 0.01 µM for the second.

First: COC(=O)N1CCc2ccc3c(nc([C@H]4CC[C@H](C(=O)O)CC4)n3[C@H](CO)Cc3ccc(F)c(F)c3)c2C1 [Compound 288]
Second: COC(=O)N1CCc2ccc3c(nc(N4CCN(C(=O)CO)CC4)n3[C@@H](C)Cc3ccccc3)c2C1 [Compound 164]
The IC50 of the first is higher: 0.01 to 0.1 µM for the first, 0.001 to 0.01 µM for the second.

Compared with `COC(=O)N1CCc2ccc3c(nc([C@H]4CC[C@H](C(=O)O)CC4)n3CCn3cc(Cl)cn3)c2C1` [Compound 236], `COC(=O)N1CCc2cc(C#N)c3c(nc([C@H]4CC[C@H](C(=O)O)CC4)n3CCc3ccccc3)c2C1` [Compound 153] is lower in IC50: 0.01 to 0.1 µM for the first, 0.001 to 0.01 µM for the second. The second is the more potent here.

First: COC(=O)N1CCc2ccc3c(nc(-c4ccncc4)n3[C@H](C)Cc3ccccc3)c2C1 [Compound 326]
Second: COC(=O)N1CCc2ccc3c(nc(C4CCCCC4)n3C[C@H]3CCCC[C@H]3C(=O)O)c2C1 [Compound 187]
The IC50 of the first is higher: 0.1 to 1 µM for the first, 0.01 to 0.1 µM for the second.

`COC(=O)N1CCc2ccc3c(nc([C@@H]4CCC[C@@H](C(=O)O)C4)n3CC[C@H]3CC[C@H](OC)CC3)c2C1` [Compound 156] and `COC(=O)N1CCc2ccc3c(nc(C4CCCC(C(=O)O)C4)n3C[C@H](C)c3ccc(F)c(F)c3)c2C1` (stereo in doubt) [Compound 30, (1S,3S)-3[3-[(2R)-2-(3,4-difluorophenyl)propyl]-8-(methoxycarbonyl)-3H,6H,7H,8H,9H-imidazo[4,5-h]isoquinolin-2-yl]cyclohexane-1-carboxylic acid] fall in the same range of IC50: 0.001 to 0.01 µM for the first, 0.001 to 0.01 µM for the second.

First: COC(=O)N1CCc2ccc3c(nc([C@H]4CC[C@H](C(=O)O)CC4)n3[C@@H](C)Cc3ccncc3)c2C1 [Compound 216]
Second: COC(=O)N1CCc2ccc3c(nc([C@H]4CC[C@H](C(=O)O)CC4)n3[C@@H](C)Cc3ccccc3C)c2C1 [Compound 7]
The IC50 of the first is higher: 0.01 to 0.1 µM for the first, 0.001 to 0.01 µM for the second.

First: COC(=O)N1CCc2ccc3c(nc(N4CCC[C@H](C(=O)O)C4)n3[C@@H](C)Cc3ccccc3)c2C1 [Compound 161]
Second: COC(=O)N1CCc2ccc3c(nc([C@H]4CC[C@@H](C(=O)O)C4)n3[C@@H](C)Cc3ccccc3C)c2C1 [Compound 218]
The IC50 of the first is lower: 0.001 to 0.01 µM for the first, 0.01 to 0.1 µM for the second. The first is the more potent here.

Compared with “(1R,3R)-3-[3-[(2R)-2-(3,4-difluorophenyl)propyl]-8-(methoxycarbonyl)-3H,6H,7H,8H,9H-imidazo[4,5-h]isoquinolin-2-yl]cyclohexane-1-carboxylic acid [Compound 28]”, `COC(=O)N1CCc2ccc3c(nc([C@@H]4CCC[C@@H](C(=O)O)C4)n3C[C@H]3CC[C@@H](OC)CC3)c2C1` [Compound 259] is higher in IC50: 0.001 to 0.01 µM for the first, 0.01 to 0.1 µM for the second. The first is the more potent here.

First: COC(=O)N1CCc2ccc3c(nc([C@H]4CC[C@@](C)(C(=O)O)CC4)n3[C@@H](C)Cn3cc(Cl)cn3)c2C1 [Compound 41]
Second: COC(=O)N1CCc2ccc3c(nc(-c4cccc([C@](C)(O)C(=O)O)c4)n3[C@@H](C)Cc3ccccc3)c2C1 [Compound 184]
The IC50 of the first is lower: 0.001 to 0.01 µM for the first, 0.01 to 0.1 µM for the second. The first is the more potent here.

First: COC(=O)N1CCc2ccc3c(nc(C4CCCCC4)n3[C@@H](C)C[C@@H]3CCCC[C@H]3C(=O)O)c2C1 [Compound 210]
Second: COC(=O)N1CCc2ccc3c(nc([C@H]4CC[C@H](C(=O)O)CC4)n3[C@@H]3CCc4ccccc4C3)c2C1 [Compound 335]
The IC50 of the first is lower: 0.01 to 0.1 µM for the first, 0.1 to 1 µM for the second.

Compared with `COC(=O)N1CCc2c([C@H]3CCOC3)cc3c(nc([C@H]4CC[C@H](C(=O)O)CC4)n3CCc3ccccc3)c2C1` [Compound 136], `COC(=O)N1CCc2ccc3c(nc(N4CCC(C(=O)O)CC4)n3[C@H](C)Cc3cc(F)cc(F)c3)c2C1` [Compound 308] is higher in IC50: 0.001 to 0.01 µM for the first, 0.1 to 1 µM for the second.

`COC(=O)N1CCc2ccc3c(nc(C4CCCCC4)n3C[C@H]3CCCC[C@@H]3C(=O)O)c2C1` [Compound 196] and `COC(=O)N1CCc2c([C@H]3CCOC3)cc3c(nc([C@H]4CC[C@H](C(=O)O)CC4)n3[C@H](C)Cc3ccccc3)c2C1` [Compound 201] fall in the same range of IC50: 0.01 to 0.1 µM for the first, 0.01 to 0.1 µM for the second.

First: COC(=O)N1CCc2ccc3c(nc(C4CCCCC4)n3C[C@H](C(=O)O)c3cc(F)c(C)cc3OC)c2C1 (single isomer, unassigned) [Compound 27]
Second: COC(=O)N1CCc2ccc3c(nc([C@H]4CC[C@@H](C(=O)O)CC4)n3[C@@H](C)Cc3ccccc3)c2C1 [Compound 230]
The IC50 of the first is lower: 0.001 to 0.01 µM for the first, 0.01 to 0.1 µM for the second.

Compared with `COC(=O)N1CCc2ccc3c(nc(C4CCCCC4)n3[C@H](C)C[C@H]3CC[C@@H](C(=O)O)CC3)c2C1` [Compound 142], `COC(=O)N1CCc2ccc3c(nc([C@@H]4CCC[C@@H](C(=O)O)C4)n3Cc3cncc(Cl)n3)c2C1` [Compound 293] is higher in IC50: 0.001 to 0.01 µM for the first, 0.1 to 1 µM for the second.

Compared with `COC(=O)N1CCc2ccc3c(nc(-c4ccc(C(=O)O)c(OC)c4)n3[C@H](C)Cc3ccccc3)c2C1` [Compound 321], `COC(=O)N1CCc2ccc3c(nc([C@H]4CC[C@H](C(=O)O)CC4)n3[C@@H](C)C[C@H]3CC[C@@H](OC(F)(F)F)CC3)c2C1` [Compound 226] is lower in IC50: 0.1 to 1 µM for the first, 0.01 to 0.1 µM for the second. The second is the more potent here.

`COC(=O)N1CCc2ccc3c(nc(C4CCCCC4)n3C[C@H](C(=O)O)c3ccccc3)c2C1` [Compound 38] and `COC(=O)N1CCc2ccc3c(nc([C@H]4CC[C@H](C(=O)O)CC4)n3Cc3ccc(OC)c(F)c3)c2C1` [Compound 94] fall in the same range of IC50: 0.001 to 0.01 µM for the first, 0.001 to 0.01 µM for the second.
